Measured values: US12540143B2, “Methods and compositions for targeted protein degradation” (Ranok Therapeutics (Hangzhou) Co. Ltd., priority 2019, dated 2026)

Each compound was assayed on MV4-11 cells (assay: MV4-11 Cytotoxicity Assay). Details: Homo sapiens, MV4-11, 72 h, read-out: MV4-11 cytotoxicity.
Type: cell-based, human

Structure (SMILES)	IC50 [nM]
CCc1cc(-c2nnc(C(N)=O)n2-c2ccc(CN3CCN(CC4CCN(C(=O)C[C@@H]5N=C(c6ccc(Cl)cc6)c6c(sc(C)c6C)-n6c(C)nnc65)CC4)CC3)cc2)c(O)cc1O [Compound 106, (S)-4-(4-((4-((1-(2-(4-(4-chlorophenyl)-2,3,9-trimethyl-6H-thieno[3,2-f][1,2,4]triazolo[4,3-a][1,4]diazepin-6-yl)acetyl)piperidin-4-yl)methyl)piperazin-1-yl)methyl)phenyl)-5-(5-ethyl-2,4-dihydroxyphenyl)-4H-1,2,4-triazole-3-carboxamide, trifluoroacetic acid]	< 100

Same assay, conditions: Homo sapiens, MV4-11; 72 hr, CCK-8; read-out: MV4-11 cytotoxicity

Structure (SMILES)	IC50 [nM]
Cc1sc2c(c1C)C(c1ccc(Cl)cc1)=N[C@@H](CC(=O)N(C)CCOc1ccc(CN(C)Cc3ccc(-n4c(O)nnc4-c4cc(C(C)C)c(O)cc4O)cc3)cc1)c1nnc(C)n1-2 [Compound 99, (S)-2-(4-(4-chlorophenyl)-2,3,9-trimethyl-6H-thieno[3,2-f][1,2,4]triazolo[4,3-a][1,4]diazepin-6-yl)-N-(2-(4-(((4-(3-(2,4-dihydroxy-5-isopropylphenyl)-5-hydroxy-4H-1,2,4-triazol-4-yl)benzyl)(methyl)amino)methyl)phenoxy)ethyl)-N-methylacetamide, formic acid]	< 100
CCN(Cc1ccc(OCCCNC(=O)C[C@@H]2N=C(c3ccc(Cl)cc3)c3c(sc(C)c3C)-n3c(C)nnc32)cc1)Cc1ccc(-n2c(O)nnc2-c2cc(C(C)C)c(O)cc2O)cc1 [Compound 100, (S)-2-(4-(4-chlorophenyl)-2,3,9-trimethyl-6H-thieno[3,2-f][1,2,4]triazolo[4,3-a][1,4]diazepin-6-yl)-N-(3-(4-(((4-(3-(2,4-dihydroxy-5-isopropylphenyl)-5-hydroxy-4H-1,2,4-triazol-4-yl)benzyl)(ethyl)amino)methyl)phenoxy)propyl)acetamide, formic acid]	< 100
Cc1sc2c(c1C)C(c1ccc(Cl)cc1)=N[C@@H](CC(=O)N(C)CCOc1ccc(CN(C)Cc3ccc(-n4c(C(=O)NCC(F)(F)F)nnc4-c4cc(C(C)C)c(O)cc4O)cc3)cc1)c1nnc(C)n1-2 [Compound 101, (S)-4-(4-(((4-(2-(2-(4-(4-chlorophenyl)-2,3,9-trimethyl-6H-thieno[3,2-f][1,2,4]triazolo[4,3-a][1,4]diazepin-6-yl)-N-methylacetamido)ethoxy)benzyl)(methyl)amino)methyl)phenyl)-5-(2,4-dihydroxy-5-isopropylphenyl)-N-(2,2,2-trifluoroethyl)-4H-1,2,4-triazole-3-carboxamide, formic acid]	< 100
CCN(Cc1ccc(OCCCNC(=O)C[C@@H]2N=C(c3ccc(Cl)cc3)c3c(sc(C)c3C)-n3c(C)nnc32)cc1)Cc1ccc(-n2c(C(=O)NCC(F)(F)F)nnc2-c2cc(C(C)C)c(O)cc2O)cc1 [Compound 102, (S)-4-(4-(((4-(3-(2-(4-(4-chlorophenyl)-2,3,9-trimethyl-6H-thieno[3,2-f][1,2,4]triazolo[4,3-a][1,4]diazepin-6-yl)acetamido)propoxy)benzyl)(ethyl)amino)methyl)phenyl)-5-(2,4-dihydroxy-5-isopropylphenyl)-N-(2,2,2-trifluoroethyl)-4H-1,2,4-triazole-3-carboxamide, trifluoroacetic acid]	< 100
Cc1sc2c(c1C)C(c1ccc(Cl)cc1)=N[C@@H](CC(=O)N1CCC(CN3CCN(Cc4ccc(-n5c(O)nnc5-c5cc(C(C)C)c(O)cc5O)cc4)CC3)CC1)c1nnc(C)n1-2 [Compound 103, (S)-2-(4-(4-chlorophenyl)-2,3,9-trimethyl-6H-thieno[3,2-f][1,2,4]triazolo[4,3-a][1,4]diazepin-6-yl)-1-(4-((4-(4-(3-(2,4-dihydroxy-5-isopropylphenyl)-5-hydroxy-4H-1,2,4-triazol-4-yl)benzyl)piperazin-1-yl)methyl)piperidin-1-yl)ethan-1-one acetate]	< 100
CCc1cc(-c2nnc(C(=O)NCCN(CC)CC)n2-c2ccc(CN3CCN(CC4CCN(C(=O)C[C@@H]5N=C(c6ccc(Cl)cc6)c6c(sc(C)c6C)-n6c(C)nnc65)CC4)CC3)cc2)c(O)cc1O [Compound 104, (S)-4-(4-((4-((1-(2-(4-(4-chlorophenyl)-2,3,9-trimethyl-6H-thieno[3,2-f][1,2,4]triazolo[4,3-a][1,4]diazepin-6-yl)acetyl)piperidin-4-yl)methyl)piperazin-1-yl)methyl)phenyl)-N-(2-(diethylamino)ethyl)-5-(5-ethyl-2,4-dihydroxyphenyl)-4H-1,2,4-triazole-3-carboxamide, trifluoroacetic acid]	< 100
CCc1cc(-c2nnc(C(=O)NC(C)C)n2-c2ccc(CN3CCN(CC4CCN(C(=O)C[C@@H]5N=C(c6ccc(Cl)cc6)c6c(sc(C)c6C)-n6c(C)nnc65)CC4)CC3)cc2)c(O)cc1O [Compound 105, (S)-4-(4-((4-((1-(2-(4-(4-chlorophenyl)-2,3,9-trimethyl-6H-thieno[3,2-f][1,2,4]triazolo[4,3-a][1,4]diazepin-6-yl)acetyl)piperidin-4-yl)methyl)piperazin-1-yl)methyl)phenyl)-5-(5-ethyl-2,4-dihydroxyphenyl)-N-isopropyl-4H-1,2,4-triazole-3-carboxamide, trifluoroacetic acid]	< 100
Cc1sc2c(c1C)C(c1ccc(Cl)cc1)=N[C@@H](CC(=O)N1CCC(CN3CCN(Cc4ccc(-n5c(C(=O)NCCN6CCCCC6)nnc5-c5cc(C(C)C)c(O)cc5O)cc4)CC3)CC1)c1nnc(C)n1-2 [Compound 107, (S)-4-(4-((4-((1-(2-(4-(4-chlorophenyl)-2,3,9-trimethyl-6H-thieno[3,2-f][1,2,4]triazolo[4,3-a][1,4]diazepin-6-yl)acetyl)piperidin-4-yl)methyl)piperazin-1-yl)methyl)phenyl)-5-(2,4-dihydroxy-5-isopropylphenyl)-N-(2-(piperidin-1-yl)ethyl)-4H-1,2,4-triazole-3-carboxamide, trifluoroacetic acid]	< 100
Cc1sc2c(c1C)C(c1ccc(Cl)cc1)=N[C@@H](CC(=O)N1CCC(CN3CCN(Cc4ccc(-n5c(C(=O)NC(C)C)nnc5-c5cc(C(C)C)c(O)cc5O)cc4)CC3)CC1)c1nnc(C)n1-2 [Compound 108, (S)-4-(4-((4-((1-(2-(4-(4-chlorophenyl)-2,3,9-trimethyl-6H-thieno[3,2-f][1,2,4]triazolo[4,3-a][1,4]diazepin-6-yl)acetyl)piperidin-4-yl)methyl)piperazin-1-yl)methyl)phenyl)-5-(2,4-dihydroxy-5-isopropylphenyl)-N-isopropyl-4H-1,2,4-triazole-3-carboxamide, trifluoroacetic acid]	100 to 1000
Cc1sc2c(c1C)C(c1ccc(Cl)cc1)=N[C@@H](CC(=O)N1CCC(CN3CCN(Cc4ccc(-n5c(C(N)=O)nnc5-c5cc(C(C)C)c(O)cc5O)cc4)CC3)CC1)c1nnc(C)n1-2 [Compound 109, (S)-4-(4-((4-((1-(2-(4-(4-chlorophenyl)-2,3,9-trimethyl-6H-thieno[3,2-f][1,2,4]triazolo[4,3-a][1,4]diazepin-6-yl)acetyl)piperidin-4-yl)methyl)piperazin-1-yl)methyl)phenyl)-5-(2,4-dihydroxy-5-isopropylphenyl)-4H-1,2,4-triazole-3-carboxamide, trifluoroacetic acid]	< 100
Cc1sc2c(c1C)C(c1ccc(Cl)cc1)=N[C@@H](CC(=O)N1CCC(CN3CCN(Cc4ccc(-n5c(C(=O)NCCN6CCCCC6)nnc5-c5ccc(O)cc5O)cc4)CC3)CC1)c1nnc(C)n1-2 [Compound 110, (S)-4-(4-((4-((1-(2-(4-(4-chlorophenyl)-2,3,9-trimethyl-6H-thieno[3,2-f][1,2,4]triazolo[4,3-a][1,4]diazepin-6-yl)acetyl)piperidin-4-yl)methyl)piperazin-1-yl)methyl)phenyl)-5-(2,4-dihydroxyphenyl)-N-(2-(piperidin-1-yl)ethyl)-4H-1,2,4-triazole-3-carboxamide, trifluoroacetic acid]	100 to 1000
CCN(CC)CCNC(=O)c1nnc(-c2ccc(O)cc2O)n1-c1ccc(CN2CCN(CC3CCN(C(=O)C[C@@H]4N=C(c5ccc(Cl)cc5)c5c(sc(C)c5C)-n5c(C)nnc54)CC3)CC2)cc1 [Compound 111, (S)-4-(4-((4-((1-(2-(4-(4-chlorophenyl)-2,3,9-trimethyl-6H-thieno[3,2-f][1,2,4]triazolo[4,3-a][1,4]diazepin-6-yl)acetyl)piperidin-4-yl)methyl)piperazin-1-yl)methyl)phenyl)-N-(2-(diethylamino)ethyl)-5-(2,4-dihydroxyphenyl)-4H-1,2,4-triazole-3-carboxamide, trifluoroacetic acid]	< 100
Cc1sc2c(c1C)C(c1ccc(Cl)cc1)=N[C@@H](CC(=O)N1CCC(CN3CCN(Cc4ccc(-n5c(C(N)=O)nnc5-c5ccc(O)cc5O)cc4)CC3)CC1)c1nnc(C)n1-2 [Compound 112, (S)-4-(4-((4-((1-(2-(4-(4-chlorophenyl)-2,3,9-trimethyl-6H-thieno[3,2-f][1,2,4]triazolo[4,3-a][1,4]diazepin-6-yl)acetyl)piperidin-4-yl)methyl)piperazin-1-yl)methyl)phenyl)-5-(2,4-dihydroxyphenyl)-4H-1,2,4-triazole-3-carboxamide, trifluoroacetic acid]	< 100
CCc1cc(-c2nnc(C(=O)NCCN3CCCCC3)n2-c2ccc(CN3CCN(CC4CCN(C(=O)C[C@@H]5N=C(c6ccc(Cl)cc6)c6c(sc(C)c6C)-n6c(C)nnc65)CC4)CC3)cc2)c(O)cc1O [Compound 117, (S)-4-(4-((4-((1-(2-(4-(4-chlorophenyl)-2,3,9-trimethyl-6H-thieno[3,2-f][1,2,4]triazolo[4,3-a][1,4]diazepin-6-yl)acetyl)piperidin-4-yl)methyl)piperazin-1-yl)methyl)phenyl)-5-(5-ethyl-2,4-dihydroxyphenyl)-N-(2-(piperidin-1-yl)ethyl)-4H-1,2,4-triazole-3-carboxamide, trifluoroacetic acid]	< 100
